Here are results for three molecules from patent US11434239B2, “Aza-dihydro-acridone derivatives” (Artax Biopharma Inc., priority 2017, dated 2022).

In general, inhibition refers to the change of the read-out against control, counted positive when it falls.

Like-named read-outs stand apart in the source and are kept apart here.

Data set [1] can be described thus: Microsomal stability (intrinsic clearance study). Type of data set: in vitro ADME. The note with it: 0.5 mg/mL protein. The procedure: Intrinsic clearance studies are performed individually with mouse, rat and human liver microsomes at 0.5 mg/mL protein concentration. Briefly, for protein concentration 0.5 mg/mL assay, liver microsomal protein (12.5 uL), NAPDH (50 uL) and phosphate buffer (435 uL) are co-incubated (pre-incubation) in a 96-well deep well plate in an orbital incubator (10 min, 37° C.). Reactions are initiated by the addition of 2.5 uL of test item working stock solution (100 uM). Aliquots (50 uL) are withdrawn from the reaction tube at 0, 5, 10, 20 and 30 minutes and the reaction is immediately terminated by transferring to a 96 deep well plate containing 50 uL of acetonitrile. Verapamil is used as a positive control in mouse, rat and human liver microsomes. To the quenched samples internal standard is added and vortex mixed followed by centrifugation at 4000 rpm for 10 minutes and an aliquot of supernatant is taken for LC-MS/MS analysis. Samples are analyzed by a suitable fit-for-purpose multiple reaction monitoring method developed on LC-MS/MS using and API 4000 mass spectrometer to estimate the area ratio (analyte peak area/internal standard peak area).

The next data set concerns the target T1, hERG (Homo sapiens, UniProt Q12809).
T1 construct: expressed in transfected cells
As to the kind of experiment: hERG inhibition, IKr current, patch clamp in HEK cells stably transfected with the hERG clone. Type of data set: cell-based. As to conditions: for inhibition at 1 µM / inhibition at 3 µM / inhibition at 10 µM / inhibition at 30 µM: human, HEK cells stably transfected with hERG; for inhibition at 1 µM: pH 7.4, 1 μM; for inhibition at 3 µM: pH 7.4, 3 μM; for inhibition at 10 µM: pH 7.4, 10 μM; for inhibition at 30 µM: pH 7.4, 30 μM; for IC50: test concentrations 1, 3, 10 and 30 μM, read-out: hERG IC 50 (IKr current). The procedure:
HEK cells stably transfected with the hERG clone are maintained at 37±2° C. in a 5% CO2 incubator. The cells are initially revived and grown in DMEM/F12+GlutaMAX-I medium supplemented with 9% fetal bovine serum (FBS) and antibiotics (Penicillin 100 IU/mL Streptomycin 100 μg/mL) (complete medium). Furthermore, the cells are continuously maintained and passaged in complete media in addition to the appropriate concentration of selection antibiotic (Geneticin (G418) 200 μg/mL) (Selection media). The cells are sub cultured every 2-3 days and medium is changed with complete medium at least a day before the experiment.
The cells are harvested on the day of experiment, dislodged and suspended in sterile filtered external solution (NaCl 140 mM, KCl 4 mM, MgCl2 1 mM, CaCl2 2 mM, D-Glucose monohydrate 5 mM, Hepes/NaOH 10 mM, pH 7.4, Osmolarity:298+/−5 mOsmol).
The NPC®-1 chip of the Port-a-Patch® is filled with 5 μL of internal solution (KCl 50 mM, NaCl 10 mM, KFl 60 mM, EGTA 20 mM, Hepes/KOH 10 mM, pH 7.2, Osmolarity: 285+/−5 mOsmol) and it is screwed onto the chip holder. The Faraday cage is then fixed on the chip holder, such that the external electrode is placed near to the chip aperture. 5 μL of external solution is added to the center of the aperture so that the external electrode is also in contact with the solution.
The experiment is be initiated. […] The suction automatically attracts a cell to the aperture, resulting in an increase in the chip resistance. When the cell is captured and the set threshold for the resistance is reached, the software recognizes this increase in resistance and proceeds to the next step of the sealing procedure. 20 μL of seal enhancer solution (NaCl 80 mM, KCl 4 mM, MgCl2 10 mM, CaCl2 35 mM, Hepes (Na+salt)/HCl pH 7.4, Osmolarity: 298+/−5 mOsmol) is added 2-3 times. When the threshold resistance is reached, Patch Control automatically moves to the step of improving the seal. When the desirable resistance (Rpip) is reached, whole cell mode is attained and maintained.
Finally, hERG protocol is selected to run the experiment. The seal enhancer solution is replaced with 20 μL external solution after 2-4 rinses and then the test item is added (from lower to higher concentration) and checked for current inhibition. All the experiments are performed at ambient temperature (22-25° C.).
A schematic diagram of the Pulse protocol: Cells are stimulated every 10 seconds using the following protocol. The holding potential, sweep intervals and the depolarization/repolarization potentials are furnished in the table below.
Once the stable current is attained (at least 2-5 minutes) vehicle control is added and the current measured till the stable current is achieved. 3-5 consecutive data points from the last stable current phase are considered for further analysis. […] The system performs on-line analysis for several parameters which include functions that acquire data from traces and functions that perform calculations on the results of other functions.

Another data set has as its target T2, CYP2D6 (Homo sapiens, UniProt P10635).
T2 construct: premixing appropriate volumes of buffer, microsomes and substrate; from tissue
As to the kind of experiment: CYP inhibition, microsomes. It is filed as in vitro ADME. As to conditions: metabolite dextrorphan, class symbols. The procedure:
(§1) For each isozyme, microsomes-buffer-substrate mixture (MBS mix) is prepared by premixing appropriate volumes of buffer, microsomes and substrate. MBS mixture (179 μL) is transferred to a 96-well reaction plate. An aliquot (1 μL) is spiked from corresponding wells of Test Item stock solution plate to reaction plate. The reaction plate is pre-incubated for 5 minutes at 37° C. Reaction is initiated by the addition of 20 μL of NADPH solution. Each experiment is performed in duplicate. Reaction plate is incubated for predetermined time at 37° C. and quenched using either 200 μL of acetonitrile (for CYP2C9, CYP2D6, CYP2C19 and CYP3A4) or 200 μL of a mixture of 70:30 1% formic acid:acetonitrile (for CYP1A2).

A further data set deals with T3, CYP1A2 (Homo sapiens, UniProt P05177).
T3 construct: premixing appropriate volumes of buffer, microsomes and substrate; from tissue
T3 sequence (P05177 1-516): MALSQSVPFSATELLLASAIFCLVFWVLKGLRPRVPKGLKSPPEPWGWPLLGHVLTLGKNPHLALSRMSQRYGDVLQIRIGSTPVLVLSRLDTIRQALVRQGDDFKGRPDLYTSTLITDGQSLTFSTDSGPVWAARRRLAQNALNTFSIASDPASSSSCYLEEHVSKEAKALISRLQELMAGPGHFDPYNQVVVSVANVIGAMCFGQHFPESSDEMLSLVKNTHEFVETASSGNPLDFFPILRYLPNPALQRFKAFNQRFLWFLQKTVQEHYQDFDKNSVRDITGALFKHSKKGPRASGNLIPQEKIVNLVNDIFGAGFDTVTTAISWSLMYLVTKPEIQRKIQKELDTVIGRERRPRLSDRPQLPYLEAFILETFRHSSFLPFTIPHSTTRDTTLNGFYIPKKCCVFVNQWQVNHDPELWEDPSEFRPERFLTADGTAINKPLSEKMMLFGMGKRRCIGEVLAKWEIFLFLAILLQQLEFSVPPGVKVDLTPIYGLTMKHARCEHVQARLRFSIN
Kind of data set: CYP inhibition, microsomes. The note with it: metabolite acetaminophen. It is filed as in vitro ADME. The procedure: as §1

In the next data set the target is T4, CYP3A4 (Homo sapiens, UniProt P08684).
T4 construct: premixing appropriate volumes of buffer, microsomes and substrate; from tissue
T4 sequence (P08684 whole entry): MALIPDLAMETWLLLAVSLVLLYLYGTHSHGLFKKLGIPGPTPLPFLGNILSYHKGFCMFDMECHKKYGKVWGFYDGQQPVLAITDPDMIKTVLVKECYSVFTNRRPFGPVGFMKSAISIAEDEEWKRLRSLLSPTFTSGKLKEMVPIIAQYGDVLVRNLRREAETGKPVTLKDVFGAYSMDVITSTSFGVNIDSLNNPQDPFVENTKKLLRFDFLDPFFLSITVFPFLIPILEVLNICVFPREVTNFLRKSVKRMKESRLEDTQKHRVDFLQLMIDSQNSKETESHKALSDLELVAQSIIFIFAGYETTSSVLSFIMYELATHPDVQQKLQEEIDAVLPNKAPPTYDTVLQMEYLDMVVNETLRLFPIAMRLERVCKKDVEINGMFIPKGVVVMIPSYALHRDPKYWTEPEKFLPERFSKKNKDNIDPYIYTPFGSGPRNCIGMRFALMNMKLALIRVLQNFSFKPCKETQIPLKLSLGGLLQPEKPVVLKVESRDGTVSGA
As to the kind of experiment: CYP inhibition, microsomes. It is filed as in vitro ADME. The protocol:
as §1

The target in another data set is T5, CYP2C19 (Homo sapiens, UniProt P33261).
T5 construct: premixing appropriate volumes of buffer, microsomes and substrate; from tissue
T5 sequence (P33261 whole entry): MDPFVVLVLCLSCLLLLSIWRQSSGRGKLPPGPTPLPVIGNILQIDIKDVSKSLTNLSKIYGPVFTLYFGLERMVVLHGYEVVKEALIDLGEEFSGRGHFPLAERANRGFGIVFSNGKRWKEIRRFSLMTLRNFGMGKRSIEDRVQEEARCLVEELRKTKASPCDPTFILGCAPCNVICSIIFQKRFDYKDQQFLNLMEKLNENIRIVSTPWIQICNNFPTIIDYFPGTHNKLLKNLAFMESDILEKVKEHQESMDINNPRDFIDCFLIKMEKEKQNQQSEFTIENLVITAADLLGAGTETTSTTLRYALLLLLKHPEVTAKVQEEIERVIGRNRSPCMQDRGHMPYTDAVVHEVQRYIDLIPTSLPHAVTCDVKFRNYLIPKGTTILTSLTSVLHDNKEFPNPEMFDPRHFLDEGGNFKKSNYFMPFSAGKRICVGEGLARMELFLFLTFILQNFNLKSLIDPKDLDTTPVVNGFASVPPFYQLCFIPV
As to the kind of experiment: CYP inhibition, microsomes. It is filed as in vitro ADME. The note with it: metabolite 4′-hydroxy mephenytoin, class symbols. The procedure: as §1

The target of another data set is T6, CYP2C9 (Homo sapiens, UniProt P11712).
T6 construct: premixing appropriate volumes of buffer, microsomes and substrate; from tissue
T6 sequence (P11712 whole entry): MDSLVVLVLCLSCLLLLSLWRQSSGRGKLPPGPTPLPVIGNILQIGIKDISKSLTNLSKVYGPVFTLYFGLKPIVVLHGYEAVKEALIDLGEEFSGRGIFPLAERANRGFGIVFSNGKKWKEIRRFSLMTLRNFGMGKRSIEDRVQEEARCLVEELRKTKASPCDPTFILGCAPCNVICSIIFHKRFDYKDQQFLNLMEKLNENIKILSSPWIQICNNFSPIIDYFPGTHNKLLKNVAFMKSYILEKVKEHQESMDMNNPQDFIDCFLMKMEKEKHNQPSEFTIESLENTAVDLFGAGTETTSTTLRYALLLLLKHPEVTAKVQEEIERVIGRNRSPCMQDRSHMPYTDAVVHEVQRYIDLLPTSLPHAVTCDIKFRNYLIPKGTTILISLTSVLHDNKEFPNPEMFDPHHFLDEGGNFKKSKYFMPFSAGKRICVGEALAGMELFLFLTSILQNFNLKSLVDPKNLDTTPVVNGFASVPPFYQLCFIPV
Kind of data set: CYP inhibition, microsomes. It is filed as in vitro ADME. As to conditions: metabolite 4-hydroxy diclofenac. The protocol: as §1

[2] abbreviates: human liver microsomes, read-out: Microsomal stability (T½ min) Human.
Setting [3] is: mouse liver microsomes, read-out: Microsomal stability (T½ min) Mouse.
The mark [4] stands for this setting: rat liver microsomes, read-out: Microsomal stability (T½ min) Rat.
The mark [5] stands for this setting: mean of two trials, read-out: Percent Inhibition Mean (%) (IKr current).
Setting [6] is: read-out: Percent Inhibition Trial I (IKr current).
Setting [7] is: read-out: Percent Inhibition Trial II (IKr current).
Setting [8] is: column CYP3A4^a (footnote a not given), class symbols, read-out: CYP IC50 CYP3A4^a.
The mark [9] stands for this setting: column CYP3A4^b (footnote b not given), class symbols, read-out: CYP IC50 CYP3A4^b.

T2 sequence (P10635 whole entry): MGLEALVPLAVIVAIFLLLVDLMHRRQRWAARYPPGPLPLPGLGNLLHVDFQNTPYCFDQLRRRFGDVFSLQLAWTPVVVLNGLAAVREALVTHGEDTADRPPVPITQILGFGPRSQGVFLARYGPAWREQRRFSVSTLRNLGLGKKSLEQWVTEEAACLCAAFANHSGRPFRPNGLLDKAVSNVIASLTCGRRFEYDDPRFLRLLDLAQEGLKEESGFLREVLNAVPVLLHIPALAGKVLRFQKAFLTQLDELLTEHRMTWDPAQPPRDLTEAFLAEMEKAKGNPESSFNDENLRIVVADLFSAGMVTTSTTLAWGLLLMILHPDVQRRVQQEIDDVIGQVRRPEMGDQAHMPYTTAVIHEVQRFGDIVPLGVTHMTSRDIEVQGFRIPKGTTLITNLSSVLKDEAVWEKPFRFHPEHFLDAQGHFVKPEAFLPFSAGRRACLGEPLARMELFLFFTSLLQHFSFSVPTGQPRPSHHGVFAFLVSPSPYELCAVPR
T1 sequence (Q12809 whole entry): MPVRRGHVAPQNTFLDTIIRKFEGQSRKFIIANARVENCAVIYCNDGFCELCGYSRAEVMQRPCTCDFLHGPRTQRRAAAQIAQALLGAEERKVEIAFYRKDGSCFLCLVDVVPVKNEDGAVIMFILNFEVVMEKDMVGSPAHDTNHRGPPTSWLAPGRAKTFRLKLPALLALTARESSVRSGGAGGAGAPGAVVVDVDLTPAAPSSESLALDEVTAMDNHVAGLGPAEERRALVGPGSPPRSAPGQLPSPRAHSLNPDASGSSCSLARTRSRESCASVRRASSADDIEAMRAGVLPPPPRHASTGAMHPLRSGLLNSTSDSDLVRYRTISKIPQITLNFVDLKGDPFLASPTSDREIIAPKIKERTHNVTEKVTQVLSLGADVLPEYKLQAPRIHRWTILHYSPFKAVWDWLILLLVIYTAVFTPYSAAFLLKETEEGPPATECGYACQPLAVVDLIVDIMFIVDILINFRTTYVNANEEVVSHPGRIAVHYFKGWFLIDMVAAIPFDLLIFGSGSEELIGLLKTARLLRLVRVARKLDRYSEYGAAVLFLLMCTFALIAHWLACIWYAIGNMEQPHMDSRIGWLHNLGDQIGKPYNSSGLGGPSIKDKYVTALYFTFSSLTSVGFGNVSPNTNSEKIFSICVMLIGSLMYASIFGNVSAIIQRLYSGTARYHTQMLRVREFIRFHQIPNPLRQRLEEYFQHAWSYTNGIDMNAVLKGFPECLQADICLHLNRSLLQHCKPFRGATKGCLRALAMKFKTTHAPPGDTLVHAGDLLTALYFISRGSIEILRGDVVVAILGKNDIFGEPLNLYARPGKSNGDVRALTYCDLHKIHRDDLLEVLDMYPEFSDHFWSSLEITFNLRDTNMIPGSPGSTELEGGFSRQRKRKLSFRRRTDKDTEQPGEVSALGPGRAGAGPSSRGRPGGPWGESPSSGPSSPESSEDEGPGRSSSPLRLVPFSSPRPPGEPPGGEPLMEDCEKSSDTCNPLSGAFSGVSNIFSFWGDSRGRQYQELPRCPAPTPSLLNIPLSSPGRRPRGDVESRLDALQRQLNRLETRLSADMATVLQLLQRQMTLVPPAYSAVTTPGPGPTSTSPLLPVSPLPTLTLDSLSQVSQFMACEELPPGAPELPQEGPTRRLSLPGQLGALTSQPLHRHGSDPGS

For the molecule `CN1c2ccccc2C(O)C2CN(Cc3ccccc3)CCC21` (centres unmarked) [Ia-1], the half-life at 0.5 uM is 10 to 30 min in data set [1] (setting [2]), less than 10 min in data set [1] (setting [3]) and less than 10 min in data set [1] (setting [4]). The results for the inhibition at 1 µM on hERG (setting [5]), at hERG (setting [6]) and at hERG (setting [7]) were 11.4%, 12.9% and 9.88%, respectively. Also, the inhibition at 3 µM on hERG (setting [5]) was 21.9%; on hERG (setting [6]) it was 21.3%; on hERG (setting [7]) it was 22.5%. Further, the inhibition at 10 µM is 28.9% at hERG (setting [5]), 29.4% on hERG (setting [6]) and 28.3% at hERG (setting [7]). The inhibition at 30 µM at hERG (setting [5]) turned out to be 54.4%; on hERG (setting [6]), 54.8%; on hERG (setting [7]) it was 54.1%. Also, the IC50 at hERG was 25.7 µM; at CYP2D6 it was not above 5 µM; at CYP1A2 (class symbols) it was 5 to 20 µM; at CYP3A4 (setting [8]), not above 5 µM; at CYP3A4 (setting [9]), 20 to 50 µM; at CYP2C19, not above 5 µM.
For `Cn1c2c(c(=O)c3ccccc31)CN(Cc1ccccc1)CC2` [Compound I-1, 2-benzyl-5-methyl-1,2,3,4-tetrahydro(5H, 10H)-benzo(b)-1,6-naphthyridin-10-one], the half-life at 0.5 uM in data set [1] (setting [2]) was not above 30 min; in data set [1] (setting [3]) it was 10 to 30 min; in data set [1] (setting [4]), 10 to 30 min. Moreover, the inhibition at 1 µM on hERG (setting [5]) was determined as 9.04%; on hERG (setting [6]) it was 9.22%; at hERG (setting [7]), 8.85%. Moreover, the inhibition at 3 µM at hERG (setting [5]) worked out at 20.9%; on hERG (setting [6]), 20.4%; on hERG (setting [7]) it was 21.4%. Also, the inhibition at 10 µM on hERG (setting [5]) is 37.8%; at hERG (setting [6]) it was 39.6%; on hERG (setting [7]), 35.9%. Further, the inhibition at 30 µM at hERG (setting [5]) was found to be 58.6%; on hERG (setting [6]), 58.9%; on hERG (setting [7]), 58.3%. Further, the IC50 on hERG is 18.4 µM; at CYP2C9 (class symbols) it was more than 50 µM; on CYP2D6, not above 5 µM; on CYP1A2 (class symbols), 20 to 50 µM; at CYP3A4 (setting [8]), more than 50 µM; on CYP3A4 (setting [9]) it was more than 50 µM. Further, the IC50 at CYP2C19 was in the range of 20 to 50 µM.
Regarding `O=c1c2c([nH]c3cc(F)c(F)cc13)CCN(Cc1ccccc1)C2` [Ib-22], the half-life at 0.5 uM was not above 30 min in data set [1] (setting [2]), 10 to 30 min in data set [1] (setting [3]) and 10 to 30 min in data set [1] (setting [4]). Besides, the inhibition at 1 µM was found to be 4.5% on hERG (setting [5]), 5.62% on hERG (setting [6]) and 3.37% at hERG (setting [7]). For the same molecule, the inhibition at 3 µM on hERG (setting [5]) amounted to 15.3%; on hERG (setting [6]), 16%; on hERG (setting [7]), 14.6%. The inhibition at 10 µM was 21.4% at hERG (setting [5]), 23.8% at hERG (setting [6]) and 19% on hERG (setting [7]). Moreover, the inhibition at 30 µM on hERG (setting [5]) is 30.1%; on hERG (setting [6]) it was 34%; at hERG (setting [7]), 26.2%. Besides, the IC50 at hERG was 47.3 µM; on CYP2C9 (numeric bound), more than 12.5 µM; on CYP2D6, not above 5 µM; at CYP1A2 (numeric bound) it was more than 12.5 µM; on CYP3A4 (CYP3A4^a, numeric bound, read-out: CYP IC50 CYP3A4^a), more than 12.5 µM; at CYP3A4 (numeric bound, read-out: CYP IC50 CYP3A4^b), more than 12.5 µM. Further, the IC50 at CYP2C19 lay in the range of 5 to 20 µM.
